Measurements as given in patent publication US20100233272A1 (priority 2007, published 2010).
Values after ≈ are worked out from the molar mass of the structure shown.

How the values were obtained:
[1] = in vitro dissolution test of solubility-improved forms in MFD solution (microcentrifuge); format: physicochemical; conditions: MFD solution (PBS pH 6.5, 0.5 wt % NaTC/POPC), 37° C., 1000 μgA/mL if all dissolved
Protocol: An in vitro dissolution test was used to determine the dissolution performance of the HPMCAS SDD. […] The test was run in duplicate. The test tubes were placed in a 37° c. temperature-controlled chamber, and an MFD solution consisting of 1.8 mL PBS at pH 6.5 and 290 mosm/kg, containing 7.3 mm sodium taurocholic acid and 1.4 mm of 1-palmitoyl-2-oleyl-sn-glycero-3-phosphocholine (0.5 wt % NaTC/POPC) was added to each tube. The samples were mixed with a vortex mixer for one minute, then centrifuged at 13,000 g and 37° C. for one minute. The resulting supernatant solution was then sampled and diluted 1:5 (by volume) with methanol and analyzed by high-performance liquid chromatography (HPLC). HPLC analysis was performed using a Zorbax SB-C8 column. The mobile phase consisted of 45% 5 mm triethanolamine, adjusted to pH 7.0, and 55% acetonitrile, with a flow rate of 1.5 mL/min. UV absorbance was measured at 254 nm. The contents of each tube were mixed on the vortex mixer and allowed to stand undisturbed at 37° C. until the next sample was taken. Samples were collected at 4, 10, 20, 40, 90, and 1200 minutes.
The concentrations of drug obtained in these samples were used to determine the maximum dissolved concentration of drug and the area under the concentration-versus-time curve during the initial 90 minutes (MDC90 and DAUC90, respectively). […]

[2] = in vitro membrane permeation test (maximum drug flux); format: physicochemical; conditions: MFD feed solution 1000 μg/mL, permeate 20 wt % decanol in decane, 37° C., fit 0 to 60 minutes
Protocol: The NP composition was evaluated in vitro using a membrane permeation test as follows. An Accurel® PP 1 E microporous polypropylene membrane was obtained from Membrana GmbH (Wuppertal, Germany). The membrane was washed in isopropyl alcohol and rinsed in methanol in a sonicating bath for one minute at ambient temperature, and then allowed to air dry at ambient temperature. The feed side of the membrane was then plasma-treated to render it hydrophilic by placing a sample of the membrane in a plasma chamber. The atmosphere of the plasma chamber was saturated with water vapor at a pressure of 550 mTorr. A plasma was then generated using radio frequency (RF) power inductively coupled into the chamber via annular electrodes at a power setting of 50 Watts for 45 seconds. The contact angle of a drop of water placed on the surface of the plasma-treated membrane was about 40°. […]
To form the feed solution, a 13.33 mg sample of the solid NP composition was weighed into the feed reservoir. […] Samples were then diluted in 250 μL IPA and analyzed using HPLC. […] UV absorbance was measured at 254 nm.
The maximum flux of drug across the membrane (in units of μg/cm^2-min) was determined by performing a least-squares fit to the concentration versus time data from 0 to 60 minutes to obtain the slope, multiplying the slope by the permeate volume (5 mL), and dividing by the membrane area (4.9 cm^2).

physchem = conditions: pH 7, aqueous buffer
[3] = GastroPlus (ACAT) simulation of absorption and pharmacokinetics; conditions: estimated based on clinical data
Text: GastroPlus™ is a computer program that simulates absorption and pharmacokinetics for orally dosed drugs.
GastroPlus™ was used to simulate the absorption and pharmacokinetics of the reference and test formulations.
The drug release profiles were used by the software to calculate the drug concentration in each compartment. The estimated human permeability data were computed using a modification of the human fasted log D absorption model to account for permeability. The model then calculated the fraction of the dose absorbed based on the ACAT model using drug concentration, permeability, surface area, and transit time in each compartment. Pharmacokinetic parameters, e.g. volume of distribution, clearance, and micro-constants were added to the software in the pharmacokinetic page, which enabled the software to calculate plasma concentration—time curves.
In the physiology page, a user-supplied physiology file was provided to the program as an input file, consisting of the following transit times for each compartment (hr): 0.1, 0.25, 0.5, 0.5, 1.0, 1.0, 1.0, 8.0, and 24.0 hr.
The model was used to evaluate the performance of the dosage forms of the invention.

SMILES	DAUC90 (area under the concentration-versus-time curve during the initial 90 minutes) [1]	MDC90 (maximum dissolved concentration of drug during the initial 90 minutes) [1]	Maximum Drug Flux [2]	solubility (physchem)	human permeability (Peff) [3]
Cc1ccc(-c2cc(C(F)(F)F)nn2-c2ccc(S(N)(=O)=O)cc2)cc1 [Crystalline celecoxib, celecoxib]	4100 min*μgA/mL	60 μgA/mL	1.0 μg/cm^2-min	–	–
Cc1ccc(-c2cc(C(F)(F)F)nn2-c2ccc(S(N)(=O)=O)cc2)cc1 [celecoxib]	–	–	–	11.6 µg/mL (≈ 30.4 µM)	0.00011262 cm/s
